Test results as given in patent publication EP4790046A1, “NOVEL COMPOUND DERIVED FROM MYRISTICA FRAGRANS, AND ANTICANCER COMPOSITION COMPRISING SAME” (Korea Institute of Science and Technology, priority 2023, dated 2025).
Like-named read-outs stand apart in the source and are kept apart here.

Tests used:
AGS = test: alamarBlue cell viability (survival rate, IC50), AGS; format: cell-based; settings: AGS (gastric cancer)
From the text: (§1) A p-value < 0.05 was considered statistically significant.

23132/87 cells [1] = test: Xenograft mouse model, tumor volume, 23132/87 (gastric cancer); format: in vivo, BALB/c/nu/nu mice; settings: 10 mg/kg intraperitoneal on alternate days, to day 27
Experimental: (§2) Tumor volume and body weight were measured twice weekly.

SW48 = test: alamarBlue cell viability (survival rate, IC50), SW48; format: cell-based; settings: SW48 (colorectal cancer)
From the text: as §1

[2] = system: various cancer cell lines; test: alamarBlue cell viability, statements across the cell line panel
Experimental: AGS, SW48, HepG2, and MiaPaCa-2 was purchased from ATCC (American Type Culture Collection, USA), SNU cell lines from the Korean Cell Line Bank (KCLB, Korea), and 23132/87 from the Leibniz Institute DSMZ - German Collection of Microorganisms and Cell Cultures GmbH (DSMZ, Germany). All cell lines were cultured in RPMI-1640 medium (HyClone, USA) supplemented with 10% FBS (Gibco, USA) and 1% penicillin-streptomycin (HyClone, USA) under conditions of 5% CO2, 37°C.
Cells were seeded at a density of 5 × 10^3cells/well in a 96-well plate for 24 hours, then treated with the compound at an appropriate concentration (10 µM) for 48 hours. After treatment, alamarBlue reagent was added at a volume ratio of 1/10 of the treatment volume and incubated for 4 hours in a 37°C cell incubator (protected from direct light). Cell viability was then determined by measuring absorbance values at 570 nm and 600 nm using a microplate reader. The anticancer effects of candidate compounds were evaluated by assessing the cell viability (%) of cells treated at specific concentrations and the half-maximal inhibitory concentration (IC50) of each natural product. Doxorubicin and oxaliplatin were used as positive controls for gastric and colorectal cancer, respectively.
Statistical analysis was performed using R software (version 4.2.2) (R Core Team). Differences between groups were assessed using student's t-test or 1-way ANOVA followed by post-hoc Tukey HSD test. A p-value < 0.05 was considered statistically significant.
Further, to measure the IC50 values against six cancer cell lines.

23132/87 = test: alamarBlue cell viability (survival rate, IC50), 23132/87; format: cell-based; settings: 23132/87 (gastric cancer)
From the text: as §1

SNU-C5 = test: alamarBlue cell viability (survival rate, IC50), SNU-C5; format: cell-based
From the text: as §1

23132/87 cells [3] = test: Apoptosis, Annexin V-FITC/PI staining, flow cytometry, 23132/87; format: cell-based; settings: for Apoptosis distribution (%), Q2: Annexin V-FITC+/PI+ (late apoptosis and cell death); for Apoptosis distribution (%), Q3: Annexin V-FITC+/PI- (early apoptosis); for Apoptosis distribution (%), Q4: Annexin V-FITC-/PI- (healthy population)
Experimental: (§3) 23132/87 and SW48 cells were seeded at densities of 5 × 10^5 and 7 × 10^5 cells/well in a 6-well plate and cultured for 24 hours. […] After treatment, cells were harvested and stained using the Annexin V-FITC Early Apoptosis Detection Kit (6592, Cell Signaling Technology, USA). Flow cytometry (BD FACSVerse Cell Analyzer and FlowJo software, BD Biosciences, USA) was applied to analyze the samples based on 10,000 events.
(§4) Student's t-test was performed for statistical analysis between the 2 concentrations of the same compound.

SW48 cell line = test: Cell cycle distribution (PI/RNase staining, flow cytometry), SW48; format: cell-based
Experimental: Cell cycle distribution was analyzed by DNA staining using FxCycle PI/RNase Staining Solution (Invitrogen, USA). The 23132/87 and SW48 cell lines was seeded at densities of 5 × 10^5 and 7 × 10^5cells/well, respectively, in 6-well plates. After 24 hours of culture, cells were starved overnight in serum-free medium. […] Cells were then harvested, fixed with 70% ethanol, and stained with PI/RNase solution. Samples were analyzed by flow cytometry (BD FACSVerse Cell Analyzer and FlowJo software, BD Biosciences, Franklin Lakes, NJ, USA) based on 10,000 events.
as §4

HepG2 = test: alamarBlue cell viability (survival rate), HepG2; format: cell-based; settings: HepG2 (liver cancer), compound 10 µM, 48 hours
From the text: as §1

SNU-719 = test: alamarBlue cell viability (survival rate, IC50), SNU-719; format: cell-based
From the text: as §1

SNU201 = test: alamarBlue cell viability (survival rate), SNU201; format: cell-based; settings: SNU201 (glioblastoma), compound 10 µM, 48 hours
From the text: as §1

SW48 cells [4] = test: Xenograft mouse model, tumor volume, SW48 (colorectal cancer); format: in vivo, BALB/c/nu/nu mice; settings: 10 mg/kg intraperitoneal on alternate days, to day 27
Experimental: as §2

[5] = mouse, in vivo, ip, 10 mg/kg
Experimental: Female BALB/c/nu/nu mice (5 weeks old) were used in the in vivo model.
As shown in the schematic diagram of Figure 16a, 23132/87 and SW48 cells were injected subcutaneously into mice at densities of 5 × 10^6 cells/mouse and 3 × 10^6 cells/mouse, respectively. […] Tumor volume and body weight were measured twice weekly. On day 27, mice were sacrificed, and major organs (liver, spleen, kidney) and tumor tissue were collected and stored for further analysis. Tumor volume was calculated using the following formula: Volume (mm^3) = (Length) × (Width)^2 × 1/2.

MiaPaCa-2 = test: alamarBlue cell viability (survival rate), MiaPaCa-2; format: cell-based; settings: MiaPaCa-2 (pancreatic cancer), compound 10 µM, 48 hours
From the text: as §1

SNU-81 = test: alamarBlue cell viability (survival rate, IC50), SNU-81; format: cell-based
From the text: as §1

caspase-3 and -7 = test: Caspase-3/7 activity assay (Caspase-Glo 3/7), SW48 cells; format: cell-based; settings: for Caspase-3/7 activity: RLU relative to DMSO; for caspase-3/7 signal higher than DMSO: SW48
Experimental: Apoptosis can be activated and progress through either the intrinsic or extrinsic pathway, but caspase-3, the executioner caspase, is involved in most cases. […] Since this enzyme activity is transient, analysis was performed at two time points: 6 hours and 12 hours post-treatment.
Specifically, the Caspase-3/7 activity assay was performed with slight modifications to the manufacturer's protocol (Promega, USA). Briefly, cells were seeded at a density of 5 × 10^3 cells/well in a 96-well plate, cultured for 24 hours, and then treated with the compound at an appropriate concentration for 6 or 12 hours. After treatment, Caspase-Glo 3/7 reagent was added in equal volumes to the treated samples. The plate was then shaken and incubated at room temperature for 2 hours. Enzyme activity was determined by measuring relative light units (RLU) using a Varioskan LUX Multimode Microplate Reader (Thermo Fisher Scientific, USA).

SW48 cells [6] = test: Apoptosis, Annexin V-FITC/PI staining, flow cytometry, SW48; format: cell-based; settings: for Apoptosis distribution (%), Q1 / Apoptosis distribution (%), Q2 / Apoptosis distribution (%), Q3 / Apoptosis distribution (%), Q4: 20 hours; for Apoptosis distribution (%), Q2: Annexin V-FITC+/PI+ (late apoptosis and cell death); for Apoptosis distribution (%), Q3: Annexin V-FITC+/PI- (early apoptosis); for Apoptosis distribution (%), Q4: Annexin V-FITC-/PI- (healthy population)
Experimental: as §3, §4

## C=CCc1cc(OC)c(O[C@H](C)[C@H](c2ccc(O)c(OC)c2)c2ccc(O)c(C(=O)CCCCCCCCc3ccc(O)cc3)c2O)c(OC)c1 [Compound 3, Myricone C]
AGS; compound 10 µM, 48 hours
  Cancer cell line survival rate (%): 0.16%
AGS; Homo sapiens, 2.5-40 µM, positive control = doxorubicin
  IC50: 3620 nM
23132/87 cells [1]
  tumor volume: smallest tumor volume was observed starting on day 13
SW48; Homo sapiens, 2.5-40 µM, positive control = oxaliplatin
  IC50: 2550 nM
SW48; compound 10 µM, 48 hours
  Cancer cell line survival rate (%): 0.01%
[2]; six cancer cell lines, 2.5-40 µM
  anticancer activity (comparison of IC50 values among compounds): strongest anticancer activity
[2]; various cancer cell lines
  anticancer activity: high anticancer activity
23132/87; 2.5-40 µM, positive control = doxorubicin
  IC50: 2070 nM
23132/87; compound 10 µM, 48 hours
  Cancer cell line survival rate (%): 1.77%
SNU-C5; SNU-C5 (colorectal cancer), compound 10 µM, 48 hours
  Cancer cell line survival rate (%): 2.11%
SNU-C5; SNUC5 (colorectal cancer), 2.5-40 µM, positive control = oxaliplatin, read-out: IC50
  IC50: 2540 nM
SNU-C5; SNUC5 cells, compound 2.5-40 µM, read-out: IC50 values
  IC50: 2540 nM
23132/87 cells [3]; 23132/87, 5 µM, 20 hours
  Apoptosis distribution (%), Q2: 9.35%
  Apoptosis distribution (%), Q3: 5.76%
  Apoptosis distribution (%), Q4: 81.57%
  Apoptosis distribution (%), Q1: 3.30%
  Q3 ratio compared with DMSO control: significantly increased
23132/87 cells [3]; 23132/87, 10 µM, 20 hours
  Apoptosis distribution (%), Q2: 10.47%
  Apoptosis distribution (%), Q3: 10.97%
  Apoptosis distribution (%), Q4: 75.00%
  Apoptosis distribution (%), Q1: 3.59%
  Q2 ratio increase compared with DMSO control: about 2%
  Q3 ratio increase compared with DMSO control: ~6%
23132/87 cells [3]; 23132/87, 5 µM
  Q3 population: 5.76% ± 0.35%
23132/87 cells [3]; 23132/87, 10 µM
  Q3 population: 10.97% ± 0.12%
  Q4 distribution reduction compared to the control group: 8.27%
23132/87 cells [3]; 23132/87, 5 to 10 µM
  Q2 and Q3 with increasing concentrations: significantly increased
SW48 cell line; SW48, 5 µM, 48 hours
  Cell cycle distribution, G1: 56.63%
  Cell cycle distribution, G2/M: 8.91%
  Cell cycle distribution, S: 23.00%
  Cell cycle distribution, Sub G1: 9.65%
SW48 cell line; SW48, 10 µM, 48 hours
  Cell cycle distribution, G1: 50.93%
  Cell cycle distribution, G2/M: 6.13%
  Cell cycle distribution, S: 19.30%
  Cell cycle distribution, Sub G1: 24.17%
  sub-G1 proportion increase compared to the DMSO control: 7%
SW48 cell line; SW48, 5 µM
  G2 phase: 8.91% ± 0.24%
  sub-G1 phase ratio: 9.65% ± 1.02%
SW48 cell line; SW48, 10 µM
  G2 phase: 6.13% ± 0.47%
  sub-G1 phase ratio: 24.17% ± 0.98%
SW48 cell line; SW48, 10 µM, 48 hours, only G2/M decrease statistically significant
  proportions of the G1, S, and G2/M phases: slightly reduced
HepG2
  Cancer cell line survival rate (%): 1.60%
SNU-719; SNU719 (gastric cancer), 2.5-40 µM, positive control = doxorubicin
  IC50: 2930 nM
SNU-719; SNU-719 (gastric cancer), compound 10 µM, 48 hours
  Cancer cell line survival rate (%): 4.30%
SNU201
  Cancer cell line survival rate (%): 1.17%
SW48 cells [4]
  tumor growth: suppressed compared to the control group
[5]
  body weight and the weights of major organs (liver, spleen, kidneys): remained stable
MiaPaCa-2
  Cancer cell line survival rate (%): 2.53%
SNU-81; SNU81 (colorectal cancer), 2.5-40 µM, positive control = oxaliplatin, read-out: IC50
  IC50: 9840 nM
SNU-81; SNU81 cells, compound 2.5-40 µM, read-out: IC50 values
  IC50: 9840 nM
SNU-81; SNU-81 (colorectal cancer), compound 10 µM, 48 hours
  Cancer cell line survival rate (%): 47.08%
caspase-3 and -7; SW48, 5 µM, 6 h
  Caspase-3/7 activity: 1.10 fold
caspase-3 and -7; SW48, 5 µM, 12 h
  Caspase-3/7 activity: 2.37 fold
caspase-3 and -7; SW48, 10 µM, 6 h
  Caspase-3/7 activity: 1.89 fold
caspase-3 and -7; SW48, 10 µM, 12 h
  Caspase-3/7 activity: 2.02 fold
caspase-3 and -7; high concentration (10 µM), 6 hours
  caspase-3/7 signal higher than DMSO: 2.37 fold
caspase-3 and -7; low concentration (5 µM), 12 hours
  caspase-3/7 signal higher than DMSO: 1.89 fold
SW48 cells [6]; SW48, 5 µM
  Apoptosis distribution (%), Q1: 7.41%
  Apoptosis distribution (%), Q2: 13.80%
  Apoptosis distribution (%), Q3: 13.73%
  Apoptosis distribution (%), Q4: 65.10%
  Q2 ratio: 13.80% ± 0.65%
  Q3 ratio: 13.73% ± 0.92%
SW48 cells [6]; SW48, 10 µM
  Apoptosis distribution (%), Q1: 4.97%
  Apoptosis distribution (%), Q2: 22.43%
  Apoptosis distribution (%), Q3: 18.77%
  Apoptosis distribution (%), Q4: 53.87%
  Q2 (Annexin V-FITC+/PI+): 22.43% ± 0.30%
  Q2 increase compared to the control: over 8%
  Q3 ratio: 18.77% ± 1.07%
  Q4 distribution reduction compared to the control group: 9.43%
  apoptotic and dead cell population (Q2 and Q3) increase over DMSO: ~10%
SW48 cells [6]; SW48, 5 µM to 10 µM
  increase in the Q2 population, dose-based comparison: over 8%
SW48 cells [6]; SW48, from 5 µM to 10 µM
  Q4 ratio reduction on changing the concentration: approximately 11.23%
